Data taken from ChEMBL document CHEMBL3045972, “Effect of side-chain alteration on hormonal activity of nonsteroidal estrogen antagonists” (2010).

Columns and labels:
[1] = test system: Rattus norvegicus; experiment: Antiestrogenic activity in Rattus norvegicus Sprague-Dawley (rat) assessed as inhibition of ethynylestradiol-induced uterine weight at 3 mg/kg, po qd administered 3 days measured on day 31 relative to control; format: functional; conditions: for inhibition in vivo at 3 mg/kg: Rattus norvegicus, Sprague-Dawley, po
[2] = test system: Rattus norvegicus; experiment: Estrogenic activity in Rattus norvegicus (rat) assessed as increase in uterine weight at 3 mg/kg, sc qd after 3 days relative to control; format: functional; conditions: route subcutaneous; for uterine weight increase relative to control: 3 mg/kg; for uterine weight increase relative to control at 3 mg/kg: Rattus norvegicus, sc, 72 h, read-out: INH
[3] = test system: Rattus norvegicus; experiment: Antiestrogenic activity in Rattus norvegicus Sprague-Dawley (rat) assessed as inhibition of ethynylestradiol-induced uterine weight at 10 mg/kg, po qd administered 3 days measured on day 31 relative to control; format: functional; conditions: for inhibition (INH): 10 mg/kg; for inhibition in vivo at 10 mg/kg: Rattus norvegicus, Sprague-Dawley, po
[4] = test system: Rattus norvegicus; experiment: Estrogenic activity in Rattus norvegicus (rat) assessed as increase in uterine weight at 10 mg/kg, sc qd after 3 days relative to control; format: functional; conditions: route subcutaneous
[5] = target: T1, Estrogen receptor (Rattus norvegicus) (UniProt P06211); experiment: Binding affinity to Charles Foster Rattus norvegicus (rat) uterine 17beta-estradiol receptor cytosolic form relative to estradiol
T1 sequence (whole entry): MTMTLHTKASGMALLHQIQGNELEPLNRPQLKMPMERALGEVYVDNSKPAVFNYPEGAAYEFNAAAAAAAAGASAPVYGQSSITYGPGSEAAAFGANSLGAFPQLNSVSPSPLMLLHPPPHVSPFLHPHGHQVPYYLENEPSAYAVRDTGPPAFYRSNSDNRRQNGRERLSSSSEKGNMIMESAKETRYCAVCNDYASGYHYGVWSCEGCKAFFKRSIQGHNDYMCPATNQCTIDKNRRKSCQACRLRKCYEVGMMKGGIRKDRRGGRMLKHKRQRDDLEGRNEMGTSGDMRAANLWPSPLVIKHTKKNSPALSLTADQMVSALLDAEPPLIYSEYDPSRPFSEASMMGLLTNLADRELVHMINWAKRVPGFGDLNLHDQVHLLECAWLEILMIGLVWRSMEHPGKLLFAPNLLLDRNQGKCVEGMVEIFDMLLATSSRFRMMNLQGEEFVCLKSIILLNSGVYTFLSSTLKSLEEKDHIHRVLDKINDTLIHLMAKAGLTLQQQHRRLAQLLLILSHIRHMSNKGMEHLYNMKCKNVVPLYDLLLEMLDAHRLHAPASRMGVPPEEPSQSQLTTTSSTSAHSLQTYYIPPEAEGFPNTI

Activity [5] | Structure (SMILES) | inhibition in vivo at 10 mg/kg [3] | Activity [4] | also measured
– | COc1ccc2c(c1)OC(C)(C)[C@@H](c1ccccc1)[C@@H]2c1ccc(O)cc1 (relative stereo; 1b) [listing 1 of 2 here] | – | – | inhibition in vivo at 3 mg/kg [1]: 60%; uterine weight increase relative to control [2]: 126.83%
– | COc1ccc2c(c1)OC(C)(C)[C@@H](c1ccccc1)[C@@H]2c1ccc(OC(C)C(=O)NN)cc1 (relative stereo) [listing 1 of 2 here] | – | – | inhibition (INH) [3]: 12.14%; Activity ([4]; 10 mg/kg): 101.91%
0.24% | COc1ccc2c(c1)OC(C)(C)[C@H](c1ccccc1)[C@H]2c1ccc(OC(C)C(=O)NN)cc1 (single isomer, unassigned; (+)) | 6.21% | 6.68% | –
0.37% | COc1ccc2c(c1)OC(C)(C)[C@@H](c1ccccc1)[C@@H]2c1ccc(OC(C)C(=O)NN)cc1 (single isomer, unassigned; (-)) [listing 1 of 2 here] | – | – | –
– | CCOC(=O)C(C)Oc1ccc([C@@H]2c3ccc(OC)cc3OC(C)(C)[C@@H]2c2ccccc2)cc1 (relative stereo) | 3.71% | 71.58% | –
– | COc1ccc2c(c1)OC(C)(C)[C@@H](c1ccccc1)[C@@H]2c1ccc(OC(C)C(=O)NN)cc1 (single isomer, unassigned; (-)) [listing 2 of 2 here] | – | – | inhibition (INH) [3]: 25.37%; Activity ([4]; 10 mg/kg): 155.02%
< 0.001% | COc1ccc2c(c1)OC(C)(C)[C@H](c1ccccc1)[C@@H]2c1ccc(O)cc1 (relative stereo) | – | 33.6% | –
– | COc1ccc2c(c1)OC(C)(C)[C@@H](c1ccccc1)[C@@H]2c1ccc(O)cc1 (relative stereo; 1c) [listing 1 of 2 here] | – | – | inhibition (INH) ([1]; 3 mg/kg): 46.11%; uterine weight increase relative to control [2]: 165%
– | COc1ccc2c(c1)OC(C)(C)[C@H](c1ccccc1)[C@H]2c1ccc(OC(C)C(=O)O)cc1 (single isomer, unassigned; (+)) | 16.1% | 6.88% | –
– | CCOC(=O)C(C)Oc1ccc([C@@H]2c3ccc(OC)cc3OC(C)(C)[C@H]2c2ccccc2)cc1 (single isomer, unassigned; (-)) | – | – | inhibition in vivo at 3 mg/kg [1]: 40.6%; uterine weight increase relative to control at 3 mg/kg [2]: 122%
– | COc1ccc2c(c1)OC(C)(C)[C@@H](c1ccccc1)[C@@H]2c1ccc(OC(C)C(=O)O)cc1 (relative stereo) | 10.8% | – | Activity ([4]; 10 mg/kg): 21.6%
0.037% | COc1ccc2c(c1)OC(C)(C)[C@@H](c1ccccc1)[C@@H]2c1ccc(OC(C)C(=O)O)cc1 (stereo in doubt; 3c) [listing 1 of 2 here] | – | – | –
0.011% | COc1ccc2c(c1)OC(C)(C)[C@H](c1ccccc1)[C@@H]2c1ccc(OC(C)C(=O)NN)cc1 (relative stereo) | 1.07% | 110.22% | –
– | CCOC(=O)C(C)Oc1ccc([C@@H]2c3ccc(OC)cc3OC(C)(C)[C@H]2c2ccccc2)cc1 (relative stereo) [listing 1 of 2 here] | 3.98% | 43.7% | –
15.7% | COc1ccc2c(c1)OC(C)(C)[C@@H](c1ccccc1)[C@@H]2c1ccc(O)cc1 (relative stereo; 1c) [listing 2 of 2 here] | – | – | –
0.029% | CCOC(=O)C(C)Oc1ccc([C@@H]2c3ccc(OC)cc3OC(C)(C)[C@H]2c2ccccc2)cc1 (relative stereo) [listing 2 of 2 here] | – | – | –
– | CCOC(=O)C(C)Oc1ccc([C@H]2c3ccc(OC)cc3OC(C)(C)[C@@H]2c2ccccc2)cc1 (single isomer, unassigned; (+)) | 14.3% | 0.19% | –
2.1% | COc1ccc2c(c1)OC(C)(C)[C@H](c1ccccc1)[C@H]2c1ccc(O)cc1 | – | – | inhibition in vivo at 3 mg/kg [1]: 50%; uterine weight increase relative to control at 3 mg/kg [2]: 109%
– | COc1ccc2c(c1)OC(C)(C)[C@@H](c1ccccc1)[C@@H]2c1ccc(OC(C)C(=O)O)cc1 (stereo in doubt; 3c) [listing 2 of 2 here] | – | – | inhibition (INH) [3]: 10%; Activity ([4]; 10 mg/kg): 149%
0.052% | COc1ccc2c(c1)OC(C)(C)[C@@H](c1ccccc1)[C@@H]2c1ccc(OC(C)C(=O)NN)cc1 (relative stereo) [listing 2 of 2 here] | – | – | –
5.42% | COc1ccc2c(c1)OC(C)(C)[C@@H](c1ccccc1)[C@@H]2c1ccc(O)cc1 (relative stereo; 1b) [listing 2 of 2 here] | – | – | –
– | COc1ccc2c(c1)OC(C)(C)[C@H](c1ccccc1)[C@@H]2c1ccc(OC(C)C(=O)O)cc1 (relative stereo) | 3.8% | 44.2% | –
